Experimental findings from patent US20230266307A1, “BIOINFORMATICS” (University of Helsinki, priority 2020, published 2023) are described below.

No end group written: not given here.

For one experiment, the system named is ccRCC PDO. The experiment can be described thus: killing assay with peptide-pulsed CD8+ T cells on ccRCC patient-derived organoids. The class given is cell-based, human. From the text:
We focused our analysis on ccRCC samples. We used transcriptomics levels to select putative tumour antigens using PBMC and healthy kidney tissue as reference sets. Next, PBMCs from healthy volunteers were pulsed with the selected peptides, and CD8+ T cells isolated from those cells were used in the assay.
Finally, we sought to investigate the recall T cells response in the ccRCC patient. To this end, unfractionated PBMCs derived from the patient were in vitro stimulated with the peptide EVAQPGPSNR whereas unstimulated PBMCs were adopted as control. The derived CD8+T cells were then added to the ccRCC PDO showing about a 7% increase in killing activity compared to the control group.

For a further experiment, the system named is JY cells. The experiment can be described thus: in vitro killing assay, real time cytolysis of JY cells by peptide-pulsed CD8+ T cells. The class given is cell-based, human. The following applies: for specific cytolysis: CD8+ T cells from HLA-matched PBMCs pulsed with the peptide, coculture with JY cells. How it is done:
Next, in order to determine the role of the peptides identified, a gene ontology (GO) term enrichment analysis was performed on our list of 9mer binder source proteins. We observed an enrichment in nuclear and intracellular proteins, mainly those interacting with DNA, RNA or involved in catabolic activity. […] To account for nonspecific cytotoxicity due to the effector cells per se, unstimulated PBMCs were used as a control. Real time cytolysis was then monitored.

Another experiment relates to B16-OVA cells. The experiment can be described thus: intratumoral PeptiCRAd treatment of established B16-OVA tumors. The class given is in vivo, C57BL/6J mice. The following applies: B16OVA. The protocol: (§1) A: Scheme of the animal experiment: 4 groups of C57BL mice were formed for each tumor cell line to be tested. Mice were subcutaneously injected either with B16-OVA or B16F10 cells at day 0. Once the tumor was palpable, mice were treated with saline solution (Mock group), uncoated adenovirus (Uncoated Virus group), adenovirus coated with pool of viral peptides homologous to TRP2 (Viral PeptiCRAd, VPC) or adenovirus coated with TRP2 peptide (TRP2 PeptiCRAd, TPC).
(§2) All PeptiCRAd complexes described in this work were prepared by mixing Adenoviruses and polyK-tailed peptides according to the following protocol: 1×10^9 vp(viral particles) were mixed with 20 ug poly-K tailed peptides (resuspended in water); after vortexing, the mixture was incubated at room temperature for 15 min; PBS was added, after the incubation, up to the injection volume (50 uL/mouse), successively, the solution was vortexed again and used for assays or animal injections. For the TRP2-PeptiCRAd, 1×10^9 vp were mixed with 20ug of 6K-TRP2180-188 peptide, while the Viral-PeptiCRAd was prepared using 1×10^9 vp mixed with 5 ug of each viral 6K-peptide homologous for […]. […]
(§3) Tumor growth was followed with a digital caliper measuring two dimensions of the tumor. Successively, the volume was mathematically calculated according to the following formula: […]

A further experiment deals with B16F10 cells. The experiment can be described thus: intratumoral PeptiCRAd treatment of established B16F10 tumors. The class given is in vivo, C57BL/6J mice. How it is done: as §1, §2, §3
The target of experiment [1] is HLA-I complexes of the human B-cell lymphoblastoid cell line JY (human). The experiment can be described thus: cell-based or functional assay.

As for “EVAQPGPSNR (HSPG2 gene) [peptide from ccRCC organoids, gene name HSPG2]”, the specific cytolysis result in the experiment on ccRCC PDO (CD8+ T cells from PBMCs of healthy volunteers pulsed with the peptide, ccRCC samples) is recorded as “about 10%”. Besides, in the experiment with ccRCC PDO (CD8+ T cells from the ccRCC patient's PBMCs stimulated with the peptide, added to ccRCC PDO, control unstimulated PBMCs), the “increase in killing activity compared to the control group” value was about 7%. Molecule “ILDKKVEKV [HLA-I peptide from JY cells, gene name HSP90AB3P]” had a specific cytolysis in the experiment on JY cells of 15%. Also, the “specific cytolysis, comparison among the tested peptides” value in the experiment with JY cells (JY cells, CD8+ T cell-dependent killing) is recorded as “higher percentage of specific cytolysis”.

On to “KVLEYVIKV [HLA-I peptide from JY cells, gene name MAGEA1]”, for which the specific cytolysis entry in the experiment on JY cells is given as “about 10%”. In the case of “QLVDIIEKV [HLA-I peptide from JY cells, gene name PSME3]”, the specific cytolysis result in the experiment on JY cells is “about 10%”. “TRP2-PeptiCRAd: adenovirus coated with 6K-TRP2180-188 peptide (KKKKKKSVYDFFVWL; also: coated on adenovirus; UniProt P29812 180-188, looked up, fragment)”: the tumor progression entry with B16-OVA cells (intratumoral, compared to saline buffer or uncoated virus) is “significantly reduced the tumor progression”; with B16F10 cells (B16F10, intratumoral, compared to saline buffer or uncoated virus), “significantly reduced the tumor progression”. For the same molecule, the number of responders entry with B16-OVA cells (tumor volume below the median at endpoint) was “significantly higher number of responders”; with B16F10 cells (B16F10, tumor volume below the median at endpoint), “significantly higher number of responders”.

B1: … (gene name HSP90AB3P) (peptide)
peptide: ILDKKVEKV
B1 showed a specific cytolysis of JY cells by CD8+ T cells pulsed with the peptide in experiment [1] of 15%.

B2: … (gene name MAGEA1) (peptide)
peptide: KVLEYVIKV
As to B2, the specific cytolysis of JY cells by CD8+ T cells pulsed with the peptide in experiment [1] came to 10%.

B3: … (gene name PSME3) (peptide)
peptide: QLVDIIEKV
modifications: not fully specified
B3 displayed a specific cytolysis of JY cells by CD8+ T cells pulsed with the peptide in experiment [1] of 10%.
